Results from patent US9636299B2, “Method for treating diabetic retinopathy” (XAVIER UNIVERSITY OF LOUISIANA, priority 2012, dated 2017).
Residues, ends and D or L forms follow the SMILES beside them.

What was measured:
Format in all cases: in vivo, mouse
[1] = system: MMP9; test: Laser photocoagulation-induced retinal injury in mice, MMP9 real-time RT-PCR; settings: apoEdp 40 mg/kg intraperitoneally once each day for 7 days, vs mice without apoEdp
Procedure: Laser Photocoagulation-Induced Retinopathy. Female mice (C57BL/6J), aged 6-8 weeks, were used for retinal laser photocoagulation studies. The mice were treated and maintained in accordance with the ARVO Statement for the Use of Animals in Ophthalmic and Vision Research. The mice were anesthetized by intraperitoneal injection of a mixture of ketamine (100 mg/kg; Warner Lambert Co., Morris Plains, N.J.) and xylazine (10 mg/kg; Bayer AG, Leverkusen, Germany), and the pupils dilated with 2.5% tropicamide (Alcon, Fort Worth, Tex.). […]
RNA Extraction, Reverse Transcription, & PCR. […] Gene expression was measured at RNA level per 100 ng of total RNA using one-step RT-PCR kit (Bio-Rad, Hercules, Calif.). Four host genes (mouse GAPDH, mouse MMP2, mouse HPSE-1 (heparanase-1), and mouse MMP9) were analyzed to confirm relative quantitative expression levels. The primer pairs used were specifically designed and synthesized by Qiagen GmbH, Hilden, Germany (Quantitech Primer assay kit, for each host gene, catalog numbers QT01658692, QT00088396, QT00009555, and QT00040040, respectively). One-step Real-time quantitative RT-PCR reactions were performed in a 50-μL volume containing a solution of 1× supermix (iQ SYBR Green; Bio-Rad, Hercules, Calif.), 1 μM mix of forward and reverse primers, and 5 μL total RNA. […] Relative quantitative expression levels were determined for each gene. […]

[2] = system: occludin; test: Streptozotocin-induced diabetic mice, retinal occludin protein by Western blot; settings: 14 days
Procedure: Western Blotting. The hRMECs were harvested in M-PER Mammalian Protein Extraction Reagent (Thermo Fisher Scientific, Inc., Rockford, Ill.) containing protease inhibitor cocktail. The total protein concentration was determined using a BCA protein assay kit (Pierce, Rockford, Ill.). Equal amounts of protein were separated by electrophoresis on 5-20% SDS-polyacrylamide gels and transferred electrophoretically onto nitrocellulose membranes (Amersham, Little Chalfont, UK). […] To ensure the equal loading of protein in each lane, each membrane was stripped and re-probed with an antibody against β-actin, and the chemiluminescence was detected as described previously. After scanning the blots with a flatbed scanner, band intensities were analyzed using ImageJ (NIH) and the relative intensity values were normalized to control values. […]
To investigate the effects on the retinal tight junction protein occludin following topical eye drop (1% apoEdp) or systemic i/p injection (40 mg/kg) of apoEdp, retinas from enucleated mouse eyes were processed to harvest total RNA, and then one-step real-time RT-PCR was performed using mice occludin-specific mRNA expression. […] To correlate the occludin-specific mRNA data at a protein level, total proteins extracted from retinas of different experimental groups (FIG. 10) were analyzed using Western-blot to detect occludin-specific protein expression.

[3] = system: VEGF; test: Streptozotocin-induced diabetic mice, retinal VEGF protein by Western blot; settings: 14 days
Procedure: Streptozotocin (STZ) induced diabetes. Twelve week old C57Bl/6 mice were used for this study. Mice were induced to have diabetes by intraperitoneal injection of 170 μg/g of streptozotocin (Sigma Aldrich, St. Louis, Mo.). Controls were injected with a vehicle (0.01M sodium citrate buffer). On the third day after STZ treatment, mice tail veins were bled to test the hyperglycemic status using blood sugar detection kit (Lifescan; Johnson & Johnson, Milpitas, Calif.). Mice with blood sugar levels of >300 mg/dL on the third day after STZ treatment were considered diabetic. Eye drop treatment containing 1% apoEdp or vehicle PBS was continued 4 times a day for 14 consecutive days. Intra-peritoneal (i/p) injection containing 40 mg/kg of apoEdp or vehicle control PBS was administered once daily for 14 consecutive days. On the 15th day post-treatment, mice were euthanized, their eyes enucleated, and the retinas dissected out to use for mRNA or Western blot analysis.
Upregulation of VEGF expression is reported as one of the reasons for the loss of tight junction proteins in diabetic mice (20).
Increased vascular permeability in diabetic retinopathy (DR) is reported to result in a concomitant increase of VEGF. The VEGF pathway is known to play a role in breakdown of the BRB through a mechanism involving the down regulation of tight junction proteins in the retinal microvasculature (20).

Compound: CC(=O)N[C@@H](CC(C)C)C(=O)N[C@@H](CCCNC(=N)N)C(=O)N[C@@H](CCCCN)C(=O)N[C@@H](CC(C)C)C(=O)N[C@@H](CCCNC(=N)N)C(=O)N[C@@H](CCCCN)C(=O)N[C@@H](CCCNC(=N)N)C(=O)N[C@@H](CC(C)C)C(=O)N[C@@H](CC(C)C)C(=O)N[C@@H](CC(C)C)C(=O)N[C@@H](CCCNC(=N)N)C(=O)N[C@@H](CCCCN)C(=O)N[C@@H](CC(C)C)C(=O)N[C@@H](CCCNC(=N)N)C(=O)N[C@@H](CCCCN)C(=O)N[C@@H](CCCNC(=N)N)C(=O)N[C@@H](CC(C)C)C(=O)N[C@@H](CC(C)C)C(N)=O [apoEdp, Ac-LRKLRKRLLLRKLRKRLL-amide] (Ac-LRKLRKRLLLRKLRKRLL-NH2)
- Expression of MMP9 in retina [1]: dramatically reduced
- Loss of occludin protein in retina ([2]; 1% apoEdp eye drop 4 times a day): significantly attenuated the loss
- Loss of occludin protein in retina ([2]; i/p injection 40 mg/kg daily): significantly attenuated the loss
- VEGF expression of retina ([3]; eye drop treatment, vs untreated diabetic): not significantly different from untreated diabetic mice
- VEGF expression of retina ([3]; i/p injection of apoEdp, vs diabetic untreated): significantly reduced VEGF expression
